Data taken from patent US20100292214A1, “Compounds with Antiparasitic Activity, Applications thereof to the Treatment of Infectious Diseases Caused by Apicomplexans” (commissariat a l'Energie Atomique, priority 2007, published 2010).
pIC50: −log10 of the molar value. Where a name gives a salt, the structure may show the parent alone. Read-outs that look alike come from different tables or passages of the source.

How the values were obtained:
[1] = tested on: asynchronous 3D7 chloroquine-sensitive P. falciparum infected red blood cells; assay: Labeled hypoxanthine incorporation assay (in vitro anti-malarial activity); type: cell-based; settings: Plasmodium falciparum, 3D7, Erythrocyte, read-out: IC50 assessed on Plasmodium Falciparum
[2] = tested on: Toxoplasma gondii RH-β1 strain; assay: microbe, parasite or virus in culture; type: cell-based; settings: Toxoplasma gondii, read-out: IC50 assessed on Toxoplama Gondii
[3] = 3D7 chloroquine-sensitive strain, infected RBC, 48 h contact, [3H]-hypoxanthine incorporation, two independent experiments in duplicates

SMILES	pIC50 [1, 3]	pIC50 [2]	pIC50 [1]
CCCc1ccc(S(=O)(=O)n2c(=O)n(C3CCN(C(=O)OC[C@H](C)N(Cc4ccccc4)Cc4ccccc4)CC3)c3ccccc32)cc1 [Compound 55, (S)-2-(dibenzylamino)propyl 4-(2-oxo-3-(4-propylphenylsulfonyl)-2,3-dihydro-1H-benzo[d]imidazol-1-yl)piperidine-1-carboxylate]	5.04	5.26	
CC(=O)Nc1ccc(S(=O)(=O)n2c(=O)n(C3CCN(C(=O)OC[C@H](C)N(Cc4ccccc4)Cc4ccccc4)CC3)c3ccccc32)cc1 [Compound 63, (S)-2-(dibenzylamino)propyl 4-(2-oxo-3-(4-acetamidylphenylsulfonyl)-2,3-dihydro-1H-benzo[d]imidazol-1-yl)piperidine-1-carboxylate]	5.81	5.52	
C[C@@H](COC(=O)N1CCC(CCn2c(=O)[nH]c3ccccc32)CC1)N(Cc1ccccc1)Cc1ccccc1 [Compound 20, (S)-2-(dibenzylamino)propyl 4-(2-(1,2-dihydro-2-oxobenzo[d]imidazol-3-yl)ethyl)piperidine-1-carboxylate]	5.16	5.38	
C[C@@H](COC(=O)N1CCC(n2c(=O)[nH]c3ncccc32)CC1)N(Cc1ccccc1)Cc1ccccc1 [Compound 11, (S)-2-(dibenzylamino)propyl 4-(2,3-dihydro-2-oxoimidazo[4,5-b]pyridin-1-yl)piperidine-1-carboxylate]	5.42	5.60	
CC(CCOC(=O)N1CCC(n2c(=O)[nH]c3ccccc32)CC1)N(Cc1ccccc1)Cc1ccccc1 (stereo not shown) [Compound 110, 3-(dibenzylamino)butyl 4-(1,2-dihydro-2-oxobenzo[d]imidazol-3-yl)piperidine-1-carboxylate]	5.83	5.44	
C[C@@H](COC(=O)N1CCC(n2c(=O)n(S(=O)(=O)c3ccc(F)cc3)c3ccccc32)CC1)N(Cc1ccccc1)Cc1ccccc1 [Compound 56, (S)-2-(dibenzylamino)propyl 4-(3-(4-fluorophenylsulfonyl)-2-oxo-2,3-dihydro-1H-benzo[d]imidazol-1-yl)piperidine-1-carboxylate]	6.48	5.82	
C[C@@H](COC(=O)NCCCn1c(=O)[nH]c2ccccc21)N(Cc1ccccc1)Cc1ccccc1 [Compound 6, (S)-2-(dibenzylamino)propyl 3-(1,2-dihydro-2-oxobenzo[d]imidazol-3-yl)propylcarbamate]	4.78	6.42	
O=C(OC[C@H](Cc1ccccc1)N(Cc1ccccc1)Cc1ccccc1)N1CCC(Nc2ccccc2)CC1 [Compound 152, (S)-2-(dibenzylamino)-3-phenylpropyl 4-(phenylamino)piperidine-1-carboxylate]		5.42	6.04
O=C(OCCN(Cc1ccccc1)Cc1ccccc1)N1CCC(n2c(=O)[nH]c3ccccc32)CC1 [Compound 30, 2-(dibenzylamino)ethyl 4-(1,2-dihydro-2-oxobenzo[d]imidazol-3-yl)piperidine-1-carboxylate]	5.16	5.12	
C[C@@H](COC(=O)N1CCC(Nc2cccc(F)c2)CC1)N(Cc1ccccc1)Cc1ccccc1 [Compound 84, (S)-2-(dibenzylamino)propyl 4-(3-fluorophenylamino)piperidine-1-carboxylate]		5.26	5.17
O=C(CCCC[C@@H]1SC[C@@H]2NC(=O)N[C@@H]21)NCCn1c(=O)n(C2CCN(C(=O)OC[C@H](Cc3ccccc3)N(Cc3ccccc3)Cc3ccccc3)CC2)c2ccccc21 [Compound 76, (S)-2-(dibenzylamino)-3-phenylpropyl 4-(3-(2 aminoethyl)-2-oxo-2,3-dihydro-1H-benzo[d]imidazol-1-yl)piperidine-1-carboxylate D-biotin amid]	6.32	5.59	
C[C@@H](COC(=O)N1CCC(n2c(=O)n(CCNC(=O)OC(C)(C)C)c3ccccc32)CC1)N(Cc1ccccc1)Cc1ccccc1 [Compound 73, (S)-2-(dibenzylamino)propyl 4-(3-(2-tert-butyloxycarbonylaminoethyl)-2-oxo-2,3-dihydro-1H-benzo[d]imidazol-1-yl)piperidine-1-carboxylate]	5.85	5.52	
O=C(OCCN(Cc1ccccc1)Cc1ccnc2ccccc12)N1CCC(n2c(=O)[nH]c3ccccc32)CC1 [Compound 131, 2-(benzyl(quinolin-4-ylmethyl)amino)ethyl 4-(2-oxo-2,3-dihydro-1H-benzo[d]imidazol-1-yl)piperidine-1-carboxylate hydrochloride]	5.53	5.98	
C[C@@H](COC(=O)N1CCC(n2c(=O)n(C(=O)OC(C)(C)C)c3ccccc32)CC1)N(Cc1ccccc1)Cc1ccccc1 [Compound 67, tert-butyl 3-(1-(((S)-2-(dibenzylamino)propoxy)carbonyl)piperidin-4-yl)-2,3-dihydro-2-oxobenzo[d]imidazole-1-carboxylate]	6.11	5.70	
C[C@@H](COC(=O)N1CCC(n2c(=O)n(S(=O)(=O)c3ccc(C(F)(F)F)cc3)c3ccccc32)CC1)N(Cc1ccccc1)Cc1ccccc1 [Compound 58, (S)-2-(dibenzylamino)propyl 4-(2-oxo-3-(4-(trifluoromethyl)phenylsulfonyl)-2,3-dihydro-1H-benzo[d]imidazol-1-yl)piperidine-1-carboxylate]	6.38	5.07	
Cc1cccc(S(=O)(=O)N(c2ccccc2)C2CCN(C(=O)OC[C@H](C)N(Cc3ccccc3)Cc3ccccc3)CC2)c1 [Compound 168, (S)-2-(dibenzylamino)propyl 4-(N-phenyl-3-methylphenylsulfonamido)piperidine-1-carboxylate]	6.32	5.54	
CCOC(=O)CCCn1c(=O)n(C2CCN(C(=O)OC[C@H](C)N(Cc3ccccc3)Cc3ccccc3)CC2)c2ccccc21 [Compound 77, (S)-2-(dibenzylamino)propyl 4-(3-(4-ethoxy-4-oxobutyl)-2-oxo-2,3-dihydro-1H-benzo[d]imidazol-1-yl)piperidine-1-carboxylate]	6.22	5.24	
Cn1c(CN(CCOC(=O)N2CCC(n3c(=O)[nH]c4ccccc43)CC2)Cc2ccccc2)cc2ccccc21 [Compound 132, 2-(benzyl((1-methyl-1H-indol-2-yl)methyl)amino)ethyl 4-(2-oxo-2,3-dihydro-1H-benzo[d]imidazol-1-yl)piperidine-1-carboxylate hydrochloride]	5.38	5.92	
COc1ccc(S(=O)(=O)n2c(=O)n(C3CCN(C(=O)OC[C@H](C)N(Cc4ccccc4)Cc4ccccc4)CC3)c3ccccc32)cc1 [Compound 57, (S)-2-(dibenzylamino)propyl 4-(3-(4-methoxyphenylsulfonyl)-2-oxo-2,3-dihydro-1H-benzo[d]imidazol-1-yl)piperidine-1-carboxylate]	6.39	5.76	
O=C(OC[C@H](Cc1ccccc1)N(Cc1ccccc1)Cc1ccccc1)N1CCC(n2c(=O)n(S(=O)(=O)c3ccccc3)c3ccccc32)CC1 [Compound 53, (S)-2-(dibenzylamino)-3-phenylpropyl 4-(1,2-dihydro-3-phenylsulfonyl-2-oxobenzo[d]imidazol-1-yl)piperidine-1-carboxylate]	5.71	4.66	
